In US20240342186A1, “PYRIDINE DERIVATIVES WITH N-LINKED CYCLIC SUBSTITUENTS AS cGAS INHIBITORS” (Boehringer Ingelheim International GmbH, priority 2021, published 2024):

Legend:
[1] = tested on: cGAMP-stimulated THP1-Dual cells (pathway directly downstream of cGAS); experiment: cGAMP stimulated counter cell assay: inhibition of IFN induction in cGAMP-stimulated THP1 cells (THP1(cGAMP) IC50); type: cell-based, human; details: for IC50: Homo sapiens, THP1-Dual, inhibition of IFN induction in cGAMP-stimulated THP1 cells, read-out: THP1(cGAMP) IC50 (converted); for Ratio THP1(cGAMP) IC50 / THP1(vir) IC50: selectivity for cGAS inhibition
Excerpt: (§1) 6.2 Method: Human cGAS Cell Assay and cGAMP Stimulated Counter Cell Assay (THP1(vir) IC50 and THP1(cGAMP) IC50)
(§2) THP1-Dual™ cells (InvivoGen #thpd-nfis) expressing IRF dependent Lucia luciferase reporter were used as basis for both assays. For the detection of cellular cGAS activity cells were stimulated by a baculovirus (pFastbac-1, Invitrogen, no coding insert) infection that delivers the cGAS enzyme stimulating double-stranded DNA (measurement of THP1(vir) IC50).
(§3) For the counter assay, cells were stimulated by cGAMP (SigmaAldrich #SML1232) to activate the identical pathway independent and directly downstream of cGAS (measurement of THP1(cGAMP) IC50). Pathway activity was monitored by measuring the Lucia luciferase activity induced by either DNA stimulated cGAS enzyme activity (measurement of THP1(vir) IC50) or by cGAMP directly (measurement of THP1(cGAMP) IC50, counter assay).
(§4) Compounds were delivered in 10 mM DMSO solution, serially diluted and transferred to the 384 well assay plate (Greiner #781201) using an Echo acoustic dispenser. Typically, 8 concentrations were used with the highest concentration at 10 μM in the final assay volume followed by ˜1:5 dilution steps. DMSO concentration was set to 1% in the final assay volume. The 384 well assay plate contained 21 test compounds (column 1-22), and DMSO in column 23 and 24.
(§5) Cells, cultivated according to manufacturer conditions, were harvested by centrifugation at 300 g/10 min and were then resuspended and diluted to 1.66E5 cells/ml in fresh cell culture medium (RPMI 1640 (Gibco #A10491-01), 10% FCS (Gibco #10500), 1× GlutaMax (Gibco #35050-061), 1× Pen/Strep solution (Gibco #15140-122), 100 μg/ml Normocin (InvivoGen #ant-nr), 100 μg/ml Zeocin (InvivoGen #ant-zn), 10 μg/ml Blasticidin S (Life Technologies #A11139-03)). The baculovirus solution was then added 1:200 (have varied according to virus batch) to the cells (measurement of THP1(vir) IC50).
(§6) 30 μL of the cell/virus-mix were added to each well of the compound plate from column 1-23 via MultiDrop Combi dispenser (5000 cells/well). In column 24, 30 μl/5000 cells/well without virus were added as a low control.
(§7) The plates were then incubated for 18 h at 37° C. in a humidified incubator.
(§8) Following that, 15 μl of QuantiLuc detection reagent (InvivoGen #rep-qlcg5) were added to each well using a MultiDrop Combi. Measurement was done immediately after the addition using an EnVision reader (US-luminescence read-mode).
(§9) For data evaluation and calculation, the measurement of the low control was set as 0% control and the measurement of the high control was set as 100% control. The IC50 values were calculated using the standard 4 parameter logistic regression formula. Calculation: [y=(a−d)/(1+(x/c)^b)+d], a=low value, d=high value; x=conc M; c=IC50 M; b=slope

[2] = tested on: cellular cGAS activity in dsDNA-stimulated human whole blood; experiment: Human whole blood assay (hWB IC50): IFNα2α production after dsDNA transfection; type: cell-based; details: inhibition of IFN induction in dsDNA-stimulated human whole blood
Experimental: 6.3 Method: Human Whole Blood Assay (Human WB IC50)
For the detection of cellular cGAS activity human whole blood was stimulated by transfection with double stranded DNA. Pathway activity was monitored by measuring the IFNα2α production.
Compounds were delivered as 10 mM DMSO solution and serially diluted and transferred to the 96-well cell culture plate (Corning #3595), prefilled with 20 μl OptiMEM (Gibco, #11058-021) in each well, using an Echo acoustic dispenser. Typically, 8 concentrations were used with the highest concentration at 10 µM in the final assay volume followed by ˜1:5 dilution steps. DMSO concentration was set to 0.1% in the final assay volume. The 96-well assay plate contained 10 test compounds, and DMSO in control wells.
Collection of human whole blood from 3 or more healthy donors (male or female, no medication for 7 days except contraceptive and thyroxine) as Na-Citrate blood (e.g. 3.8% in Monovettes from Sarstedt) was conducted in parallel. Whole blood was kept at room temperature for a maximum of 3 hours after collection until use in the assay.
160 μl of the whole blood samples was transferred to each well of the 96-well assay plates filled with compound/OptiMEM. All assay plates were prepared as duplicates with blood from different donors. Blood plates were kept at room temperature for 60 minutes and continuous shaking with 450 rpm, covered with the lid, but not sealed.
20 μl OptiMEM and 9.6:1 Fugene was added to all low control wells.
After covering assay plates with aera seals and the lid, blood plates were kept at room temperature for 30 minutes and continuous shaking with 450 rpm, followed by an overnight incubation of 22 h at 37° C. in the incubator, without shaking.
For the detection of IFNα-2α in human plasma, the biotinylated capture antibody (Antibody set IFNA2, Meso Scale Diagnostics #B21VH-3, including coating and capture antibody) was diluted 1:17.5 in Diluent 100 (Meso Scale Diagnostics #R^50AA-4), according to the manufacturer's directions. U-Plex MSD GOLD 96-well Small Spot Strepavidin SECTOR Plates (Meso Scale Diagnostics #L45SA-5) were coated with 25 μl diluted capture antibody. Coated plates were incubated for 60 min at room temperature under continuous shaking at 700 rpm. MSD IFNα-2α plates were washed three times with 150 μl wash buffer (1x HBSS, 0.05% Tween).
After blocking the plates with 100 μl block solution/well (1x HBSS with 0.2% Tween, 2% BSA) for 60 min at room temperature and continuous shaking at 700 rpm, plates were emptied as dry as possible by dumping just before continuing with the human plasma.
Whole Blood assay plates were centrifuged at 1600 rpm for 10 minutes. 25 μl of supernatant was transferred with a pipetting robot from each whole blood plate to the corresponding IFNα-2α plate. Plates were sealed with microplate seals and kept at room temperature again under continuous shaking at 700 rpm for two hours.
Next MSD IFNα-2α plates were washed three times with 150 μl wash buffer (1×HBSS, 0.05% Tween), before adding 25 μl MSD SULFO-TAG IFNα-2α Antibody solution (1:100 diluted in Diluent 3 (Meso Scale Diagnostics #R50AP-2) to each well of the plates.
Afterwards plates were sealed with microplate seals and kept at room temperature again under continuous shaking at 700 rpm for two hours. Finally, MSD IFNα-2α plates were washed three times with 150 μl wash buffer (1×HBSS, 0.05% Tween). 150 μl 2× Read buffer was added to each well and plates were immediately measured with the MSD Sector S600 Reader using the vendor barcode.
For data evaluation and calculation, % control calculation of each well was based on the mean of high (DNA stimulated control) and mean of low (unstimulated control) controls by using the following formula:
[counts(sample)−counts(low))/(counts(high)−counts(low))]*100
The IC50 values were calculated using the standard 4 parameter logistic regression formula. Calculation: [y=(a−d)/(1+(x/c)^b)+d], a=low value, d=high value; x=conc M; c=IC50 M; b=slope

cGAS = cGAS (Homo sapiens (Human), UniProt Q8N884); experiment: Human cGAS enzyme assay (hcGAS IC50, in vitro), cGAMP formation by RapidFire MS; type: biochemical; details: biochemical (in vitro) cGAS inhibition;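 further: enzyme activated by 45 bp dsDNA with GTP and ATP (30 µM each), 60 min compound pre-incubation then 90 min reaction, cGAMP relative to cyclic-di-GMP internal standard, 8-point dilutions up to 10 µM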
cGAS, sequence (Q8N884 whole entry): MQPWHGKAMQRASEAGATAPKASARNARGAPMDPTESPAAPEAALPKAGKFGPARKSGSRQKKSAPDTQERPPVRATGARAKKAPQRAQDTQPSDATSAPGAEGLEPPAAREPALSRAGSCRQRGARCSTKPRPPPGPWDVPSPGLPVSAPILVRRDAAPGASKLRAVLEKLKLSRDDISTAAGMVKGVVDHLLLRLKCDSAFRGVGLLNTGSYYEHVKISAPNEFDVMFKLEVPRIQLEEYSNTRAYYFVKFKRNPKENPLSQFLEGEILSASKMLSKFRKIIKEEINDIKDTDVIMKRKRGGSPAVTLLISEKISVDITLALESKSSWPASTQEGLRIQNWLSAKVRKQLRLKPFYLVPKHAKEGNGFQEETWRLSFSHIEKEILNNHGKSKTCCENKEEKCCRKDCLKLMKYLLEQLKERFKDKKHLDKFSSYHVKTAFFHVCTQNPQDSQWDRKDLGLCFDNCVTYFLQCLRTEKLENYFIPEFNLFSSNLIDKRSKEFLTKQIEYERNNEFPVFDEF

[3] = tested on: cellular cGAS activity in baculovirus-stimulated THP1-Dual cells (IRF dependent Lucia luciferase reporter); experiment: Human cGAS cell assay: inhibition of IFN induction in virus-stimulated THP1 cells (THP1(vir) IC50); type: cell-based; details: Homo sapiens, THP1-Dual; inhibition of IFN induction in virus-stimulated THP1 cells; read-out: THP1(vir) IC50
Excerpt: as §1, §2, §3, §4, §5, §6, §7, §8, §9

Row | SMILES | IC50 [1] [nM] | Ratio THP1(cGAMP) IC50 / THP1(vir) IC50 [1] | IC50 [2] [nM] | IC50 (cGAS) [nM] | IC50 [3] [nM]
1 | C[C@H]1COCCN1c1cc(Br)cnc1O[C@H]1C[C@@H](C(=O)O)N(c2nc(C(F)F)nc3c2oc2ccccc23)C1 [Example 1.28] | > 16600 | >33 | 629 | 3 | 500
2 | C#Cc1cnc(O[C@H]2C[C@@H](C(=O)O)N(c3nc(C)nc4c3oc3ccccc34)C2)c(N2CCOC[C@@H]2C)c1 [Example 1.29] | > 16600 | >56 | 61 | 4 | 296
3 | C#Cc1cnc(O[C@H]2C[C@@H](C(=O)O)N(c3nc(C(F)(F)F)nc4c3oc3ccccc34)C2)c(N2CCOC[C@@H]2C)c1 [Example 1.30] | 22100 | 139 | 80 | 3 | 159
4 | C#Cc1cnc(O[C@H]2C[C@@H](C(=O)O)N(c3nc(C(F)F)nc4c3oc3ccccc34)C2)c(N2CCOC[C@@H]2C)c1 [Example 1.31] | > 16600 | >72 | 102 | 3 | 232
5 | C[C@@H]1N(c2cc(Br)cnc2O[C@H]2C[C@@H](C(=O)O)N(c3nc(C(F)(F)F)nc4c3oc3ccccc34)C2)CCOC12CC2 [Example 1.33] | > 10000 | 677 | 252 | 3 | 15
6 | C[C@@H]1N(c2cc(F)cnc2O[C@H]2C[C@@H](C(=O)O)N(c3nc(C(F)(F)F)nc4c3oc3ccccc34)C2)CCOC12COC2 [Example 1.34] | > 10000 | 514 | 51 | 3 | 19
7 | C#Cc1cnc(O[C@H]2C[C@@H](C(=O)O)N(c3nc(C(F)F)nc4c3oc3ccccc34)C2)c(N2CCOCC2)c1 [Example 2.01, (2S,4S)-1-[4-(Difluoromethyl)-8-oxa-3,5-diazatricyclo[7.4.0.0^2,7]trideca-1(13),2,4,6,9,11-hexzen-6-yl]-4-{[5-ethynyl-3-(morpholin-4-yl)pyridin-2yl]oxy}-pyrrolidine-2-carboxylic acid] | > 16600 | >19 | 506 | 8 | 858
8 | C#Cc1cnc(O[C@H]2C[C@@H](C(=O)O)N(c3nc(C(F)(F)F)nc4c3oc3ccccc34)C2)c(N2CCOCC2)c1 [Example 2.02] | > 16600 | >22 | 1030 | 7 | 752
9 | C#Cc1cnc(O[C@H]2C[C@@H](C(=O)O)N(c3nc(CF)nc4c3oc3ccccc34)C2)c(N2CCOC3(COC3)[C@@H]2C)c1 [Example 2.04] | 25400 | 8125 | 5 | 1 | 3
10 | C#Cc1cnc(O[C@H]2C[C@@H](C(=O)O)N(c3nc(Cl)nc4c3oc3ccccc34)C2)c(N2CCOC3(COC3)[C@@H]2C)c1 [Example 2.05] | 10800 | 3018 | 8 | 2 | 4
11 | C#Cc1cnc(O[C@H]2C[C@@H](C(=O)O)N(c3nc(C)nc4c3oc3cc(C(F)F)ccc34)C2)c(N2CCOC3(COC3)[C@@H]2C)c1 [Example 2.06] | 11900 | 189 | 52 | 4 | 63
12 | C#Cc1cnc(O[C@H]2C[C@@H](C(=O)O)N(c3nc(C)nc4c3oc3cc(Cl)ccc34)C2)c(N2CCOC3(COC3)[C@@H]2C)c1 [Example 2.07] | 14500 | 1005 | 28 | 3 | 14
13 | C#Cc1cnc(O[C@H]2C[C@@H](C(=O)O)N(c3nc(C)nc4c3oc3cc(F)ccc34)C2)c(N2CCOC3(COC3)[C@@H]2C)c1 [Example 2.08] | 18800 | 3490 | 6 | 3 | < 5
14 | C#Cc1cnc(O[C@H]2C[C@@H](C(=O)O)N(c3nc(C(F)(F)F)nc4c3oc3cc(CC)ccc34)C2)c(N2CCOC3(COC3)[C@@H]2C)c1 [Example 2.09] | 5180 | 166 | 37 | 6 | 31
15 | C#Cc1cnc(O[C@H]2C[C@@H](C(=O)O)N(c3nc(CCl)nc4c3oc3ccccc34)C2)c(N2CCOC3(COC3)[C@@H]2C)c1 [Example 2.10] | 2750 | 533 | 24 | 3 | 5
